# Patent US20230293403A1, “Compositions Comprising Lipophilic Compounds and One or More (Bio)-Alkanediols” (Symrise AG, priority 2020, published 2023)
# Columns and labels:
# [1] = Maximum solubility of alkanediols in water, visual assessment (Example 6); conditions: assessed visually at ambient temperature after 24 h storage at 5° C.; clear mixture = dissolved
# [2] = test system: skin (backside of hand) of untrained panelists; experiment: Sensory evaluation by untrained panelists: heptanediols, octanediols and their mixtures blended 85:15 with liquid lipophilic components (Example 4, Table 22); set-up: species or system human; conditions: in vivo
# Protocol: Test procedure: • Hands were pre-washed with liquid soap by following a defined procedure; • 30 μl of corresponding sample was applied on the backside of each hand (randomized); • After 30 s the spreading behaviour of the respective formulation on skin was evaluated versus the respective oil component without 1,2-heptanediol on a scale from 1 to 5 (1=low spreading; 5=high spreading); • The samples were distributed with the fingertips of middle and forefinger with 2×5 cycles; • After 2 minutes, the fatty/greasy skin feel was evaluated on a scale from 1 to 5 (1=low fatty/greasy skin feel; 5=high fatty/greasy skin feel); • Furthermore the applicants were asked to assess the absorption, i.e. the impression of amount of remaining residue on the skin on a scale from 1 to 5 (1=low absorption; 5=high absorption).
# For evaluating the sensory behaviour, liquid lipophilic components specified in the following Table 22 were blended with 1,2-heptanediol or 2,3-heptanediol or a mixture of 1,2-heptanediol and 2,3-heptanediol or 1,2-octanediol or 2,3-octanediol or a mixture of 1,2-octanediol and 2,3-octanediol (formulation) in a ratio of 85:15 and assessed by untrained panelists in comparison to the liquid lipophilic component without addition of the specified alkanediols (placebo).
# The test procedure was carried out in the same manner as described in Example 2.
# [3] = Solubility of different alkanediols or mixtures thereof in sunflower oil (Example 1); format: physicochemical
# Protocol: Each 15 g 1,2-pentanediol, 1,2-hexanediol, 1,2-heptanediol or 1,2-octanediol were dissolved in 85 g sunflower oil. Each 15 g of a mixture of 1,2-octanediol and 2,3-octanediol (95:5) or 1,2-heptanediol and 2,3-heptanediol (95:5) were dissolved in 85 g sunflower oil.
Structure (SMILES),Maximum solubility in water [1],improvement in spreading of liquid lipophilic components with poor spreading by nature [2],solubility in sunflower oil [3]
"CCCCCC(O)CO (stereo not drawn) [1,2-heptanediol]",2.5 % by weight,perform best,better solubility
"CCCCCC(O)C(C)O (stereo not drawn) [2,3-octanediol]",1.5 % by weight,–,–
"CCCCC(O)C(C)O (stereo not drawn) [2,3-heptanediol]",3.6 % by weight,–,–
"CCCCCCC(O)CO (stereo not drawn) [1,2-octanediol]",–,–,tends to precipitate or recrystallize

# Next, values leading:
Maximum solubility in water [1],improvement in spreading of liquid lipophilic components with poor spreading by nature [2],solubility in sunflower oil [3],Structure (SMILES)
0.3 % by weight,–,–,"CCCCCCC(O)C(C)O (stereo not drawn) [2,3-nonanediol]"
0.1 % by weight,–,–,"CCCCCCCC(O)CO (stereo not drawn) [1,2-nonanediol]"
0.5 % by weight,–,–,"CCCCCCC(O)CO (stereo not drawn) [Hydrolite ® 8, Caprylyl Glycol]"
